Values of other authors in patent publication US20080075658A1, “Method of Radiolabeling Formulations for Gamma Scintigraphy Assessment” (priority 2006, published 2008).

Conditions: radioactive decay of the radionuclide

SMILES	half life	half-life
[Tc] [Example 99mTc, technetium]	6.01 h	–
[O-2].[O-2].[O-2].[Sm+3].[Sm+3] [Sm2O3, samarium oxide]	46.27 h	–
[Cl-].[Cl-].[Cl-].[In+3] [InCl2, indium chloride]	InCl2 half life is 67.2 hrs	67.2 h
